Here are results for 8 compounds from ChEMBL document CHEMBL4689842, “EUbOPEN Chemogenomics Library wave 1” (2021).

Holding throughout (format): toxicity, cell-based
Data set [1] relates to HEK-293T. Put plainly: Incucyte cell viability with HEK293T. The conditions noted are these: human, 10 µM, compound concentration 10 uM.
Data set [2] has as its system U2OS. Put plainly: Incucyte cell viability with U2OS. The conditions noted are these: human, 10 µM, compound concentration 10 uM.
Data set [3] concerns Fibroblast. The data set can be described thus: Incucyte cell viability with human fibroblast. The conditions noted are these: 10 µM, compound concentration 10 uM.
Setting [4] is: 0 h, replicate number 1, timepoint 0 hours.
[5] abbreviates: 6 h, replicate number 1, timepoint 6 hours.
Setting [6] is: 12 h, replicate number 1, timepoint 12 hours.
Setting [7] is: 18 h, replicate number 1, timepoint 18 hours.
Setting [8] is: 24 h, replicate number 1, timepoint 24 hours.
Setting [9] is: 0 h, replicate number 2, timepoint 0 hours.
The mark [10] stands for this setting: 12 h, replicate number 2, timepoint 12 hours.
[11] abbreviates: 6 h, replicate number 2, timepoint 6 hours.
The mark [12] stands for this setting: 18 h, replicate number 2, timepoint 18 hours.
Setting [13] is: 24 h, replicate number 2, timepoint 24 hours.
Further: filed as whole numbers so only -1 and 0 and 1 occur.

With `Cc1cc(NC(=O)Nc2ccc(N(C)C)cc2)c2cc(F)cc(F)c2n1`, the “Growth Rate” value in data set [1] (setting [4]), in data set [1] (setting [5]), in data set [1] (setting [6]), in data set [1] (setting [7]), in data set [1] (setting [8]) and in data set [2] (setting [9]) was 0 in each case. Moreover, the “Growth Rate” value in data set [2] (setting [5]) is 0; in data set [2] (setting [6]), 0; in data set [2] (setting [10]), 1; in data set [2] (setting [7]) it was 0; in data set [2] (setting [8]) it was 0; in data set [3] (setting [4]), 1. Further, the “Growth Rate” value in data set [3] (setting [5]) was 0; in data set [3] (setting [6]) it was 1; in data set [3] (setting [7]), 1; in data set [3] (setting [8]) it was 1.
Turning to `CC(=O)[C@@]1(O)CC[C@H]2[C@@H]3C[C@H](C)C4=CC(=O)CC[C@]4(C)[C@H]3CC[C@@]21C`, the “Growth Rate” value in data set [1] (setting [4]) was 1; in data set [1] (setting [9]), 0; in data set [1] (setting [5]), 0; in data set [1] (setting [6]) it was 0; in data set [1] (setting [7]) it was 0; in data set [1] (setting [8]) it was 0. Besides, the “Growth Rate” value in data set [2] (setting [4]), in data set [2] (setting [5]), in data set [2] (setting [6]), in data set [2] (setting [7]), in data set [2] (setting [8]) and in data set [3] (setting [4]) was 1 each time. Besides, the “Growth Rate” value in data set [3] (setting [9]) was found to be 0; in data set [3] (setting [5]) it was 0; in data set [3] (setting [6]), 1; in data set [3] (setting [7]), 1; in data set [3] (setting [8]), 1.
As to `Oc1ccc(-c2nc3cc(O)cc(Br)c3o2)cc1`, the “Growth Rate” value in data set [1] (setting [4]) is 1; in data set [1] (setting [9]), 0; in data set [1] (setting [5]), 0; in data set [1] (setting [11]), 1; in data set [1] (setting [6]) it was 0; in data set [1] (setting [10]), 1. Further, the “Growth Rate” value in data set [1] (setting [7]) turned out to be 1; in data set [1] (setting [8]) it was 0; in data set [2] (setting [11]) it was 0; in data set [2] (setting [6]), 1; in data set [2] (setting [10]) it was 0; in data set [2] (setting [7]), 1. Besides, the “Growth Rate” value in data set [2] (setting [8]) is given as 1; in data set [3] (setting [4]), 0; in data set [3] (setting [5]) it was 0; in data set [3] (setting [7]), 1; in data set [3] (setting [8]), 1.
Take `O=C(O)COc1cccc(CN(Cc2ccc(-n3cccn3)cc2)S(=O)(=O)c2cccnc2)c1`: the “Growth Rate” value in data set [1] (setting [4]) worked out at 0; in data set [1] (setting [5]), 1; in data set [1] (setting [6]) it was 1; in data set [1] (setting [7]) it was 1; in data set [1] (setting [8]), 1; in data set [2] (setting [4]), 0. The “Growth Rate” value amounted to 0 in data set [2] (setting [11]); 1 in data set [2] (setting [6]); 0 in data set [2] (setting [10]); 1 in data set [2] (setting [7]); 0 in data set [2] (setting [12]); 1 in data set [2] (setting [8]). Also, the “Growth Rate” value was determined as 0 in data set [2] (setting [13]); 1 in data set [3] (setting [4]); 0 in data set [3] (setting [5]); 1 in data set [3] (setting [6]); 1 in data set [3] (setting [7]); 1 in data set [3] (setting [8]).
Take `O=C(Nc1cccc2c(=O)cc(-c3nnn[nH]3)oc12)c1ccc(OCCCCc2ccccc2)cc1`: the “Growth Rate” value was 1 in data set [1] (setting [4]); 0 in data set [1] (setting [9]); 0 in data set [1] (setting [5]); 1 in data set [1] (setting [11]); 0 in data set [1] (setting [6]); 0 in data set [1] (setting [7]). For the same compound, the “Growth Rate” value was 0 in data set [1] (setting [8]); 1 in data set [1] (setting [13]); 1 in data set [2] (setting [4]); 0 in data set [2] (setting [5]); 0 in data set [2] (setting [6]); 0 in data set [2] (setting [7]). Besides, the “Growth Rate” value came out at 1 in data set [2] (setting [8]); 0 in data set [2] (setting [13]); 0 in data set [3] (setting [4]); 1 in data set [3] (setting [9]); 0 in data set [3] (setting [5]); 0 in data set [3] (setting [6]). In addition, the “Growth Rate” value in data set [3] (setting [10]) is 1; in data set [3] (setting [7]) it was 0; in data set [3] (setting [12]), 1; in data set [3] (setting [8]), 0.
On to `Cc1cc(C(=O)N2Cc3cnn(C)c3Nc3ccccc32)ccc1CNC(=O)N1CCC[C@H]1C(=S)N1CCCN(C)CC1`, for which the “Growth Rate” value in data set [1] (setting [4]) was determined as 1; in data set [1] (setting [9]) it was 0; in data set [1] (setting [5]), 0; in data set [1] (setting [11]), 1; in data set [1] (setting [6]) it was 0; in data set [1] (setting [10]) it was 1. Besides, the “Growth Rate” value is on record as 0 in data set [1] (setting [7]); 0 in data set [1] (setting [8]); 0 in data set [2] (setting [9]); 0 in data set [2] (setting [5]); 0 in data set [2] (setting [6]); 1 in data set [2] (setting [10]). Further, the “Growth Rate” value in data set [2] (setting [7]) worked out at 0; in data set [2] (setting [12]), 1; in data set [2] (setting [8]), 0; in data set [3] (setting [4]) it was 0; in data set [3] (setting [5]), 0; in data set [3] (setting [6]), 1. The “Growth Rate” value in data set [3] (setting [7]) was determined as 0; in data set [3] (setting [12]), 1; in data set [3] (setting [8]), 0.
`Cc1cc(C)c(N)c(C#Cc2cccc(F)c2)n1.Cl`: the “Growth Rate” value in data set [1] (setting [4]) worked out at 1; in data set [1] (setting [9]), 0; in data set [1] (setting [5]), 0; in data set [1] (setting [11]), 1; in data set [1] (setting [6]) it was 0; in data set [1] (setting [10]) it was 1. Moreover, the “Growth Rate” value worked out at 0 in data set [1] (setting [7]); 1 in data set [1] (setting [12]); 0 in data set [1] (setting [8]); 1 in data set [1] (setting [13]); 0 in data set [2] (setting [5]); 0 in data set [2] (setting [6]). Moreover, the “Growth Rate” value in data set [2] (setting [7]) amounted to 0; in data set [2] (setting [12]) it was 1; in data set [2] (setting [8]), 0; in data set [2] (setting [13]), 1; in data set [3] (setting [4]), 0; in data set [3] (setting [5]), 0. The “Growth Rate” value in data set [3] (setting [6]), in data set [3] (setting [7]) and in data set [3] (setting [8]) was 0 each time.
Take `COc1ccc(/C=C/CCCCOc2ccc(C(=O)c3cccc(C(=O)O)c3)cc2CCC(=O)O)cc1`: the “Growth Rate” value was 1 in data set [1] (setting [4]); 0 in data set [1] (setting [9]); 1 in data set [1] (setting [5]); 1 in data set [1] (setting [6]); 1 in data set [1] (setting [7]); 1 in data set [1] (setting [8]). The “Growth Rate” value in data set [1] (setting [13]) was 0; in data set [2] (setting [4]), 0; in data set [2] (setting [11]), 0; in data set [2] (setting [10]), 0; in data set [2] (setting [7]) it was 1; in data set [2] (setting [12]), 0. Also, the “Growth Rate” value in data set [2] (setting [8]) was 1; in data set [2] (setting [13]), 0; in data set [3] (setting [4]), 0; in data set [3] (setting [5]) it was 1; in data set [3] (setting [11]), 0; in data set [3] (setting [6]), 0. In addition, the “Growth Rate” value in data set [3] (setting [7]) and in data set [3] (setting [8]) was 0 throughout.
